Some results are limits rather than exact numbers.

The data set relates to THP-1 macrophages. Put plainly: Effect of compounds on host cell viability (MTT). The class given is cell-based. The settings on record: read-out: 24h LC50; THP1 macrophages, 24-hour incubation, MTT assay (Supplemental Table 2). The method, then:
The cells were cultured at 37C, 5% CO2 in RPMI medium (ATCC) supplemented with 10% FBS, 1% Penicillin/Streptomycin and 0.05 mM of β-mercaptoethanol. Cells were used in experiments up to passage 10.
Effect of the compounds on THP-1 cell viability measured using thiazolyl blue tetrazolium bromide which measures cell metabolic activity (MTT). THP-1 cells were seeded in a 96 well plate (25,000 cells/well) overnight then differentiated with 150 nM phorbol 12-myristate 13-acetate (PMA) over 72 hours. Macrophages were then treated with compounds resuspended in RPMI media (1- 50 μM) for 24 hours. Media was replaced with thiazolyl blue tetrazolium bromide solubilized in RPMI media (0.5 mg/mL) and incubated at 37°C for 2 hours. The reduced formazan crystals were solubilized with isopropyl alcohol and the absorbance of the resulting solution was measured at 560 nm with a background subtraction at 670 nm. […] This process was repeated with a 72-hr incubation and extended concentration range (1 - 300 μM) for select compounds.
For orientation: Formazan colour is commonly taken as a measure of viable cells.
On to `FC(F)(F)c1ccc(-c2ccc(-c3cc(C(F)(F)F)nn3-c3ccc(Br)cc3)cc2)cc1` [Compound 2], for which the CC50 was greater than 50 µM.
To `FC(F)(F)c1ccc(-c2ccc(-c3cc(C(F)(F)F)nn3-c3ccc(NC4CN(C(c5ccccc5)c5ccccc5)C4)cc3)cc2)cc1` [Compound 4] belongs greater than 50 µM.
Consider `O=C(OCc1ccccc1)N1CCC(Nc2ccc(-n3nc(C(F)(F)F)cc3-c3ccc(-c4ccc(C(F)(F)F)cc4)cc3)cc2)C1` (centres unmarked) [Compound 6], for which the CC50 is greater than 50 µM.
The same measure for `O=[N+]([O-])c1ccc(-n2nc(C(F)(F)F)cc2-c2ccc(-c3ccc(C(F)(F)F)cc3)cc2)cc1` [Compound 9]: greater than 50 µM; for `FC(F)(F)c1ccc(-c2ccc(-c3cc(C(F)(F)F)nn3-c3ccc(N4CCC(NCc5ccccc5Cl)C4)cc3)cc2)cc1` (centres unmarked) [Compound 12]: greater than 50 µM.
On to `FC(F)(F)c1ccc(-c2ccc(-c3cc(C(F)(F)F)nn3-c3ccc(N4CCC(NCc5cccc(Cl)c5Cl)C4)cc3)cc2)cc1` (centres unmarked) [Compound 13], for which the CC50 was greater than 50 µM.
Regarding `COc1ccc(CNC2CCN(c3ccc(-n4nc(C(F)(F)F)cc4-c4ccc(-c5ccc(C(F)(F)F)cc5)cc4)cc3)C2)cc1` (centres unmarked) [Compound 14], the CC50 came to 50 µM.
To `CC(C)(C)OC(=O)N1CCC(Nc2ccc(-n3nc(C(F)(F)F)cc3-c3ccc(-c4ccc(C(F)(F)F)cc4)cc3)cc2)C1` (centres unmarked) [Compound 15] belongs greater than 50 µM.
Consider `FC(F)(F)c1ccc(-c2ccc(-c3cc(C(F)(F)F)nn3-c3ccc(N4CCC(NCc5ccccc5)C4)cc3)cc2)cc1` (centres unmarked) [Compound 16], for which the CC50 is greater than 50 µM.
Consider `FC(F)(F)c1ccc(-c2ccc(-c3cc(C(F)(F)F)nn3-c3ccc(N4CCC(NCc5ccc6ccccc6c5)C4)cc3)cc2)cc1` (centres unmarked) [Compound 17], for which the CC50 was greater than 50 µM.
As to `N#Cc1ccc(CNC2CCN(c3ccc(-n4nc(C(F)(F)F)cc4-c4ccc(-c5ccc(C(F)(F)F)cc5)cc4)cc3)C2)cc1` (centres unmarked) [Compound 19], the CC50 is greater than 50 µM.
For the molecule `FC(F)(F)c1ccc(-c2ccc(-c3cc(C(F)(F)F)nn3-c3ccc(N4CCC(NCc5cccs5)C4)cc3)cc2)cc1` (centres unmarked) [Compound 20], the CC50 was greater than 50 µM.
On to `Fc1ccccc1CNC1CCN(c2ccc(-n3nc(C(F)(F)F)cc3-c3ccc(-c4ccc(C(F)(F)F)cc4)cc3)cc2)C1` (centres unmarked) [Compound 21], for which the CC50 is greater than 50 µM.
Turning to `CC(C)(C)OC(=O)NC1CN(c2ccc(-n3nc(C(F)(F)F)cc3-c3ccc(-c4ccc(C(F)(F)F)cc4)cc3)cc2)C1` [Compound 22], the CC50 is greater than 50 µM.
Regarding `FC(F)(F)c1ccc(CNC2CCN(c3ccc(-n4nc(C(F)(F)F)cc4-c4ccc(-c5ccc(C(F)(F)F)cc5)cc4)cc3)C2)cc1` (centres unmarked) [Compound 24], the CC50 is greater than 50 µM.
To `COc1ccc(-n2nc(C(F)(F)F)cc2-c2ccc(-c3ccc(C(F)(F)F)cc3)cc2)cc1` [Compound 26] belongs 5.8 µM; to `Oc1ccc(-n2nc(C(F)(F)F)cc2-c2ccc(-c3ccc(C(F)(F)F)cc3)cc2)cc1` [Compound 27], greater than 50 µM.
The same measure for `CC(C)(C)OC(=O)N1CCC(Oc2ccc(-n3nc(C(F)(F)F)cc3-c3ccc(-c4ccc(C(F)(F)F)cc4)cc3)cc2)CC1` [Compound 28]: greater than 50 µM; for `O=[N+]([O-])c1ccc(-n2cc(C(F)(F)F)nc2-c2ccc(Cl)cc2)cc1` [Compound 29]: greater than 50 µM.
Turning to `Nc1ccc(-n2cc(C(F)(F)F)nc2-c2ccc(Cl)cc2)cc1` [Compound 30], the CC50 was greater than 50 µM.
As for `FC(F)(F)c1c[nH]c(-c2ccc(-c3ccccc3)cc2)n1` [Compound 31], the CC50 was greater than 50 µM.
Regarding `O=[N+]([O-])c1ccc(-n2cc(C(F)(F)F)nc2-c2ccc(-c3ccccc3)cc2)cc1` [Compound 32], the CC50 stood at 6.3 µM.
To `Nc1ccc(-n2cc(C(F)(F)F)nc2-c2ccc(-c3ccccc3)cc2)cc1` [Compound 33] belongs 1.5 µM; to `FC(F)(F)c1c[nH]c(-c2ccc(Cl)cc2)n1` [Compound 35], greater than 50 µM.
Take `FC(F)(F)c1ccc(-c2ccc(-c3cc(C(F)(F)F)nn3-c3ccc(NC4CCN(Cc5ccc(-c6ccccc6)cc5)C4)cc3)cc2)cc1` (centres unmarked) [Compound 36]: the CC50 is greater than 50 µM.
On to `O=[N+]([O-])c1ccc(-n2nc(C(F)(F)F)cc2-c2ccc(Br)cc2)cc1` [Compound 37], for which the CC50 is greater than 50 µM.
With `O=[N+]([O-])c1ccc(-n2nc(-c3ccc(Br)cc3)cc2C(F)(F)F)cc1` [Compound 38], the CC50 is greater than 50 µM.
Take `O=[N+]([O-])c1ccc(-n2nc(C(F)(F)F)cc2-c2ccc(C#CC3CC3)cc2)cc1` [Compound 39]: the CC50 is greater than 50 µM.
The same measure for `Nc1ccc(-n2nc(C(F)(F)F)cc2-c2ccc(Br)cc2)cc1` [Compound 40]: greater than 50 µM; for `CC(C)(C)OC(=O)N1CCN(c2ccc(-n3nc(C(F)(F)F)cc3-c3ccc(Br)cc3)cc2)CC1` [Compound 41]: greater than 50 µM.
In the case of `C#Cc1ccc(-c2cc(C(F)(F)F)nn2-c2ccc(N3CCNCC3)cc2)cc1` [Compound 43], the CC50 came to 0.5 µM.
As for `FC(F)(F)c1cc(-c2ccc(-c3ccc(S(F)(F)(F)(F)F)cc3)cc2)n(-c2ccc(N3CCNCC3)cc2)n1` [Compound 46], the CC50 came to 10 µM.
`CC(C)(C)OC(=O)N1CCN(c2ccc(-n3nc(C(F)(F)F)cc3-c3ccc(C#CC(F)(F)F)cc3)cc2)CC1` [Compound 47]: the CC50 was greater than 50 µM.
With `Cc1ccccc1CNC1CN(c2ccc(-n3nc(C(F)(F)F)cc3-c3ccc(-c4ccc(C(F)(F)F)cc4)cc3)cc2)C1` [Compound 48], the CC50 is greater than 50 µM.
Consider `FC(F)(F)c1ccc(-c2ccc(-c3cc(C(F)(F)F)nn3-c3ccc(NC4CCN(Cc5cccc(Cl)c5Cl)C4)cc3)cc2)cc1` (centres unmarked) [Compound 52], for which the CC50 is greater than 50 µM.
For the molecule `CC(C)(C)OC(=O)N1CC(Nc2ccc(-n3nc(C(F)(F)F)cc3-c3ccc(-c4ccc(C(F)(F)F)cc4)cc3)cc2)C1` [Compound 56], the CC50 is greater than 50 µM.
As to `CCCCNc1ccc(-n2nc(C(F)(F)F)cc2-c2ccc(-c3ccc(C(F)(F)F)cc3)cc2)cc1` [Compound 57], the CC50 was greater than 50 µM.
For the molecule `O=C(c1ccc(F)cc1)N1CCC(Nc2ccc(-n3nc(C(F)(F)F)cc3-c3ccc(-c4ccc(C(F)(F)F)cc4)cc3)cc2)C1` (centres unmarked) [Compound 59], the CC50 was greater than 50 µM.
In the case of `CCCCCCNc1ccc(-n2nc(C(F)(F)F)cc2-c2ccc(-c3ccc(C(F)(F)F)cc3)cc2)cc1` [Compound 60], the CC50 is greater than 50 µM.
Turning to `CC(C)C#Cc1ccc(-c2cc(C(F)(F)F)nn2-c2ccc(N3CCC(NCc4ccc(O)cc4)C3)cc2)cc1` (centres unmarked) [Compound 101], the CC50 turned out to be 0.5 µM.
For the molecule `CC(C)(C)OC(=O)N1CCC(Nc2ccc(-n3nc(C(F)(F)F)cc3-c3ccccc3C(F)(F)F)cc2)C1` (centres unmarked) [Compound 259], the CC50 came to 23.6 µM.
Regarding `FC(F)(F)c1cc(-c2ccc(Cl)c(Cl)c2)n(-c2ccc(NC3CCNC3)cc2)n1` (centres unmarked) [Compound 261], the CC50 was 22.4 µM.
To `FC(F)(F)c1cc(C2CC2)n(-c2ccc(Br)cc2)n1` [Compound 266] belongs greater than 50 µM; to `FC(F)(F)c1cc(-c2ccco2)n(-c2ccc(Br)cc2)n1` [Compound 267], greater than 50 µM; to `CC(C)(C)OC(=O)N1CCC(Nc2ccc(-n3nc(C(F)(F)F)cc3C3CC3)cc2)C1` (centres unmarked) [Compound 268], greater than 50 µM.
Turning to `CC(C)(C)OC(=O)N1CCC(Nc2ccc(-n3nc(C(F)(F)F)cc3-c3ccco3)cc2)C1` (centres unmarked) [Compound 269], the CC50 is greater than 50 µM.
The same measure for `Cc1cc(C(F)(F)F)n(-c2ccc(Br)cc2)n1` [Compound 274]: greater than 50 µM.

The record behind these values is doi:10.1101/2025.11.04.686469, “Discovery of Host-Directed Small Molecules with Broad Anti-Leishmanial Efficacy” (bioRxiv, 2025).
